Reference: ChEMBL document CHEMBL3102773, “The synthesis and comparative receptor binding affinities of novel, isomeric pyridoindolobenzazepine scaffolds” (Bioorg Med Chem Lett, 2014)
Several values for one entry are separate records, joined by “and”; a condition that tells them apart may be missing. Equal values may be shown once. Where a name gives a salt, the structure may show the parent alone.

Assays:
[1] = target: 5-hydroxytryptamine receptor 2B (Homo sapiens, UniProt P41595)
Description: Displacement of [3H]LSD from 5-HT2B receptor (unknown origin)

[2] = target: Sodium-dependent dopamine transporter (Homo sapiens, UniProt Q01959); test: Binding affinity to dopamine transporter (unknown origin) by radioligand displacement assay
[3] = target: T1, 5-hydroxytryptamine receptor 3A (Homo sapiens, UniProt P46098)
T1 sequence (P46098 whole entry): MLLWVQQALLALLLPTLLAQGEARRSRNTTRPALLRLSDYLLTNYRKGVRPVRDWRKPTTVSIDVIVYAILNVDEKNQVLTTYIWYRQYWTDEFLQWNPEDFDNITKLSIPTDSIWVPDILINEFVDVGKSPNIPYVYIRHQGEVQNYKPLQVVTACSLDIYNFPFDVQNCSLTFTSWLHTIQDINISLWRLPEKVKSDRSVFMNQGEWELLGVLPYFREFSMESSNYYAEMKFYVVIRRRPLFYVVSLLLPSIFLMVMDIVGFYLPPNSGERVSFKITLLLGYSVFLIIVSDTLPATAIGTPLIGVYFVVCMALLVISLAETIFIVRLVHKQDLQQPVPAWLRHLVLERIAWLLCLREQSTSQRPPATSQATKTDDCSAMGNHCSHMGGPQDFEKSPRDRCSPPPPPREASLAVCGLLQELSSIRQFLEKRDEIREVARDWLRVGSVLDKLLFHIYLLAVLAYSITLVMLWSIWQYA
Description: Displacement of [3H]GR65630 from 5-HT3 receptor (unknown origin)

[4] = target: Beta-1 adrenergic receptor (Homo sapiens, UniProt P08588); test: Binding affinity to adrenergic beta1 receptor (unknown origin) by radioligand displacement assay
[5] = target: Sodium-dependent noradrenaline transporter (Homo sapiens, UniProt P23975); test: Displacement of [3H]Nisoxetine from norepinephrine transporter (unknown origin)
[6] = target: Mu-type opioid receptor (Homo sapiens, UniProt P35372); test: Binding affinity to mu opioid receptor (unknown origin) by radioligand displacement assay
[7] = target: T2, Muscarinic acetylcholine receptor M4 (Homo sapiens, UniProt P08173); test: Binding affinity to muscarinic M4 receptor (unknown origin) by radioligand displacement assay
T2 sequence (P08173 whole entry): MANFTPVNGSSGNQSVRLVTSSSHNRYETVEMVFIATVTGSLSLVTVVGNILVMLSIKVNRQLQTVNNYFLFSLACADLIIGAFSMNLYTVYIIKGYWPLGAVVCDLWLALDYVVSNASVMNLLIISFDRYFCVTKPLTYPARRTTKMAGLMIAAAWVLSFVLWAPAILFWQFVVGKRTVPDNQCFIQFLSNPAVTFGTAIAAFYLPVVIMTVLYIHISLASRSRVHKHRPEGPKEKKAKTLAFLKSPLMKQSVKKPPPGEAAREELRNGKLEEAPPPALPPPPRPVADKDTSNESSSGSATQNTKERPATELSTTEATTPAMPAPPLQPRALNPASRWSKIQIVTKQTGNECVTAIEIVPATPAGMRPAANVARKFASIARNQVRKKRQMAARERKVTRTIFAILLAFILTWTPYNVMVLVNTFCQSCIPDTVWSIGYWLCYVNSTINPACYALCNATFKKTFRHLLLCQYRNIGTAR

[8] = target: Beta-3 adrenergic receptor (Homo sapiens, UniProt P13945); test: Binding affinity to adrenergic beta3 receptor (unknown origin) by radioligand displacement assay
[9] = target: T3, D(4) dopamine receptor (Homo sapiens, UniProt P21917)
T3 sequence (P21917 whole entry): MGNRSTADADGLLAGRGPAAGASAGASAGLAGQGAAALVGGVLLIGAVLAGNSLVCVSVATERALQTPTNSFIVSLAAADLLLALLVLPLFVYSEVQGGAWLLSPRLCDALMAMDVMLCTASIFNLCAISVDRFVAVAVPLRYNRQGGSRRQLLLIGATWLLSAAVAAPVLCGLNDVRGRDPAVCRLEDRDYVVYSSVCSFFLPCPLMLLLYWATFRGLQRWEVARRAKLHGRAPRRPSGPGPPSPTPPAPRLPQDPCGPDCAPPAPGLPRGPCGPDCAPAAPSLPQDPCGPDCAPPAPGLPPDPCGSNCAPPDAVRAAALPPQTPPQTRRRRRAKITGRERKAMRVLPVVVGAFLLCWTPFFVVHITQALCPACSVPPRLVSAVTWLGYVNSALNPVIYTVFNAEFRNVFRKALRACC
Description: Displacement of [3H]N-Methylspiperone from dopamine D4 receptor (unknown origin)

[10] = target: Histamine H3 receptor (Homo sapiens, UniProt Q9Y5N1); test: Binding affinity to histamine H3 receptor (unknown origin) by radioligand displacement assay
[11] = target: T4, Muscarinic acetylcholine receptor M2 (Homo sapiens, UniProt P08172); test: Binding affinity to muscarinic M2 receptor (unknown origin) by radioligand displacement assay
T4 sequence (P08172 whole entry): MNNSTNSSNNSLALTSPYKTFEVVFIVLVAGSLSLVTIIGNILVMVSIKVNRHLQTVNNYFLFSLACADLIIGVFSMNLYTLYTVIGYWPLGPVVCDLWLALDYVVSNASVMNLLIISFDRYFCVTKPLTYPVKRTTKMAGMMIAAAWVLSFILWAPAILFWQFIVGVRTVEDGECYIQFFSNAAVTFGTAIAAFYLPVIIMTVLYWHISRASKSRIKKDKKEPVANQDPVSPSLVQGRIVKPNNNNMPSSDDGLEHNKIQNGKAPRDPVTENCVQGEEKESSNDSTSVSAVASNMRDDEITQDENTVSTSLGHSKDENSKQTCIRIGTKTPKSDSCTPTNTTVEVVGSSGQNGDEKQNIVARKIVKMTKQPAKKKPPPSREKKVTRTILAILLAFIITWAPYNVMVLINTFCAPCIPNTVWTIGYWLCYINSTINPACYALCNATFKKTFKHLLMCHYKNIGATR

[12] = target: D(3) dopamine receptor (Homo sapiens, UniProt P35462)
Description: Displacement of [3H]N-Methylspiperone from dopamine D3 receptor (unknown origin)

[13] = target: D(1A) dopamine receptor (Homo sapiens, UniProt P21728); test: Binding affinity to dopamine D1 receptor (unknown origin) by radioligand displacement assay
[14] = target: Beta-2 adrenergic receptor (Homo sapiens, UniProt P07550); test: Binding affinity to adrenergic beta2 receptor (unknown origin) by radioligand displacement assay
[15] = target: Delta-type opioid receptor (Homo sapiens, UniProt P41143); test: Binding affinity to delta opioid receptor (unknown origin) by radioligand displacement assay
[16] = target: 5-hydroxytryptamine receptor 1E (Homo sapiens, UniProt P28566)
Description: Displacement of [3H]5HT from 5-HT1E receptor (unknown origin)

[17] = target: Alpha-1A adrenergic receptor (Homo sapiens, UniProt P35348)
[18] = target: Histamine H2 receptor (Homo sapiens, UniProt P25021)
[19] = target: 5-hydroxytryptamine receptor 2C (Homo sapiens, UniProt P28335)
Description: Displacement of [3H]Mesulergine from 5-HT2C receptor (unknown origin)

[20] = target: D(2) dopamine receptor (Homo sapiens, UniProt P14416); test: Displacement of [3H]N-Methylspiperone from dopamine D2 receptor (unknown origin)
[21] = target: Muscarinic acetylcholine receptor M5 (Homo sapiens, UniProt P08912)
Description: Displacement of [3H]QNB from muscarinic M5 receptor (unknown origin)

[22] = target: 5-hydroxytryptamine receptor 5A (Homo sapiens, UniProt P47898)
Description: Displacement of [3H]LSD from 5-HT5A receptor (unknown origin)

[23] = target: Sigma non-opioid intracellular receptor 1 (Homo sapiens, UniProt Q99720); test: Displacement of [3H](+)Pentazocine from sigma 1 receptor (unknown origin)
[24] = target: Kappa-type opioid receptor (Homo sapiens, UniProt P41145); test: Displacement of [3H]U69593 from kappa opioid receptor (unknown origin)
[25] = target: Muscarinic acetylcholine receptor M1 (Homo sapiens, UniProt P11229)
Description: Displacement of [3H]QNB from muscarinic M1 receptor (unknown origin)

[26] = target: Alpha-1B adrenergic receptor (Homo sapiens, UniProt P35368)
Description: Displacement of [125I]HEAT from adrenergic alpha1B receptor (unknown origin)

[27] = target: Muscarinic acetylcholine receptor M3 (Homo sapiens, UniProt P20309)
Description: Displacement of [3H]QNB from muscarinic M3 receptor (unknown origin)

[28] = target: Alpha-1D adrenergic receptor (Homo sapiens, UniProt P25100)
[29] = target: D(1B) dopamine receptor (Homo sapiens, UniProt P21918)
Description: Displacement of [3H]SCH23390 from dopamine D5 receptor (unknown origin)

[30] = target: Sodium-dependent serotonin transporter (Homo sapiens, UniProt P31645)
[31] = target: 5-hydroxytryptamine receptor 7 (Homo sapiens, UniProt P34969)
Description: Displacement of [3H]LSD from 5-HT7 receptor (unknown origin)

[32] = target: 5-hydroxytryptamine receptor 1D (Homo sapiens, UniProt P28221); test: Displacement of [3H]5-CT from 5-HT1D receptor (unknown origin)
[33] = target: 5-hydroxytryptamine receptor 1B (Homo sapiens, UniProt P28222)
Description: Displacement of [3H]5-CT from 5-HT1B receptor (unknown origin)

[34] = target: 5-hydroxytryptamine receptor 1A (Homo sapiens, UniProt P08908); test: Displacement of [3H]WAY100635 from 5-HT1A receptor (unknown origin)
[35] = target: Alpha-2B adrenergic receptor (Homo sapiens, UniProt P18089)
Description: Displacement of [125I]Clonidine from adrenergic alpha2B receptor (unknown origin)

[36] = target: Alpha-2A adrenergic receptor (Homo sapiens, UniProt P08913)
Description: Displacement of [125I]Clonidine from adrenergic alpha2A receptor (unknown origin)

[37] = target: 5-hydroxytryptamine receptor 6 (Homo sapiens, UniProt P50406)
Description: Displacement of [3H]LSD from 5-HT6 receptor (unknown origin)

[38] = target: Histamine H1 receptor (Homo sapiens, UniProt P35367)
Description: Displacement of [3H]Pyrilamine from histamine H1 receptor (unknown origin)

[39] = target: Alpha-2C adrenergic receptor (Homo sapiens, UniProt P18825)
Description: Displacement of [125I]Clonidine from adrenergic alpha2C receptor (unknown origin)

[40] = target: 5-hydroxytryptamine receptor 2A (Homo sapiens, UniProt P28223)
Description: Displacement of [3H]Ketanserin from 5-HT2A receptor (unknown origin)

Chain of Sodium-dependent dopamine transporter (Q01959 whole entry): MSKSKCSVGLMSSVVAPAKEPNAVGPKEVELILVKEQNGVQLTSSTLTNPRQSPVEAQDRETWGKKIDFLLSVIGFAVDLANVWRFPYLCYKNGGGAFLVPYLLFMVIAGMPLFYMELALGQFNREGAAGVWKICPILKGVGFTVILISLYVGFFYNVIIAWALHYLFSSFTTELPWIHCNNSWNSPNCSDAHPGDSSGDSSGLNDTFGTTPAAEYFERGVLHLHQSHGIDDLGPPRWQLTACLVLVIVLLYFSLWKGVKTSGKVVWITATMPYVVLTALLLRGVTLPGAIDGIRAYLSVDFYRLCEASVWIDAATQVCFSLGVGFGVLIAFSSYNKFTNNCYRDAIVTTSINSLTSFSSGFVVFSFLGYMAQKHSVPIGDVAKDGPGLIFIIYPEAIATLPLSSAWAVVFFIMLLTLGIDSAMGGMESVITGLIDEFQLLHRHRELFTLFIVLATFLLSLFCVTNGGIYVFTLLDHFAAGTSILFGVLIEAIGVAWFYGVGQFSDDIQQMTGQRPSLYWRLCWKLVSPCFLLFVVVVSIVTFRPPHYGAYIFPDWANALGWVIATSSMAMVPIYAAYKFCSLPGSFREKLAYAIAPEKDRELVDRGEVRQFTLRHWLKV
Chain of Histamine H3 receptor (Q9Y5N1 whole entry): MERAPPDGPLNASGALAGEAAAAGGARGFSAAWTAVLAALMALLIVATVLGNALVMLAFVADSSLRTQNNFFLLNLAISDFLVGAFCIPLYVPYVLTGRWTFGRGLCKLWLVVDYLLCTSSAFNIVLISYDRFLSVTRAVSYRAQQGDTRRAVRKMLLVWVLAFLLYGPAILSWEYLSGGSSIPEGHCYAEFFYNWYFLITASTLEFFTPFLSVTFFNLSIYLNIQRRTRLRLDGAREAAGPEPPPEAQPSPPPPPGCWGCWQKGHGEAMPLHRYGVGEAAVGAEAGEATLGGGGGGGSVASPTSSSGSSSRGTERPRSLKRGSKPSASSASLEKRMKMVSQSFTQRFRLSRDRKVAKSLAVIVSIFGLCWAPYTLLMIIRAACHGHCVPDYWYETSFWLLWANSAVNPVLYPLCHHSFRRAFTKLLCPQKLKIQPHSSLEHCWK
Chain of Beta-3 adrenergic receptor (P13945 whole entry): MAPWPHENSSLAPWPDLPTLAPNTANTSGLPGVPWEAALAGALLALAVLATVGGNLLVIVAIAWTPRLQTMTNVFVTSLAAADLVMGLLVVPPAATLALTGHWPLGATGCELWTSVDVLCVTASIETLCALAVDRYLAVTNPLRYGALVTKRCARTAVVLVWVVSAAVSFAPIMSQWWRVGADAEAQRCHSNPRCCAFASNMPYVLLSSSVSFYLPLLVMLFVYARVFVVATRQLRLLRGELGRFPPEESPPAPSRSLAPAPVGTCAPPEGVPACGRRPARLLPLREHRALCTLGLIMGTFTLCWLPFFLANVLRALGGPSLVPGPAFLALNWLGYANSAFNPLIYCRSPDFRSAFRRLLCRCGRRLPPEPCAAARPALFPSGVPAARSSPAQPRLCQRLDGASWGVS
Chain of Mu-type opioid receptor (P35372 whole entry): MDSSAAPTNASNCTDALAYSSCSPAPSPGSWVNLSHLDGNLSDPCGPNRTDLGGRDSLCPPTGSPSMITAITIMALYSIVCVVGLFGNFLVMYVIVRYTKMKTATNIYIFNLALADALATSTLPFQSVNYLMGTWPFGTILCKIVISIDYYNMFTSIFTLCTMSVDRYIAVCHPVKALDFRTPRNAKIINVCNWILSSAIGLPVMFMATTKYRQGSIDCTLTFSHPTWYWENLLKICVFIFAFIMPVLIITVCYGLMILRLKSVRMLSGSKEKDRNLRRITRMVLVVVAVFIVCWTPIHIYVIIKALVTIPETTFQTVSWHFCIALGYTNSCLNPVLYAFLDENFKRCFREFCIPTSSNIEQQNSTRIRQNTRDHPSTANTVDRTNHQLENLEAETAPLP
Chain of Histamine H2 receptor (P25021 whole entry): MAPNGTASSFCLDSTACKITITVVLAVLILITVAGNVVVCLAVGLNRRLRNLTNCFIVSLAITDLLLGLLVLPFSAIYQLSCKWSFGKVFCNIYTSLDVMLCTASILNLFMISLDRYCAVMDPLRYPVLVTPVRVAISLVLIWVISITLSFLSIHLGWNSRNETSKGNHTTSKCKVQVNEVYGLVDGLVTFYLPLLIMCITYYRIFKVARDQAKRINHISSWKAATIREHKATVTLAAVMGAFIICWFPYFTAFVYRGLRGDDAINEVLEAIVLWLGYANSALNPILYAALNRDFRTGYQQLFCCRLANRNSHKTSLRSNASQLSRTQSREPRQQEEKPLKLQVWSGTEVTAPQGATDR
Chain of D(1A) dopamine receptor (P21728 whole entry): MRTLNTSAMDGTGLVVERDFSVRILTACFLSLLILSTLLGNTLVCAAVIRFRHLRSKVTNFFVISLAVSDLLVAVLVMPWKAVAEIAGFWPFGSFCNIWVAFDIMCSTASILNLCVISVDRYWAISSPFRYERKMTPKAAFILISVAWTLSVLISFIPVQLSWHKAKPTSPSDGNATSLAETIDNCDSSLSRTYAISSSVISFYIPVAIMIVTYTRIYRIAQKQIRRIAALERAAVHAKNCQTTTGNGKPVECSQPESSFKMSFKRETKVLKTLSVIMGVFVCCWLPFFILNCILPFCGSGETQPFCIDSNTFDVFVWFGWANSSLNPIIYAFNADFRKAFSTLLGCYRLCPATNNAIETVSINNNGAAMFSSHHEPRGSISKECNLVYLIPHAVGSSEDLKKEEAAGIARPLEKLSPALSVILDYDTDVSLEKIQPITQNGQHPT
Chain of Sodium-dependent noradrenaline transporter (P23975 whole entry): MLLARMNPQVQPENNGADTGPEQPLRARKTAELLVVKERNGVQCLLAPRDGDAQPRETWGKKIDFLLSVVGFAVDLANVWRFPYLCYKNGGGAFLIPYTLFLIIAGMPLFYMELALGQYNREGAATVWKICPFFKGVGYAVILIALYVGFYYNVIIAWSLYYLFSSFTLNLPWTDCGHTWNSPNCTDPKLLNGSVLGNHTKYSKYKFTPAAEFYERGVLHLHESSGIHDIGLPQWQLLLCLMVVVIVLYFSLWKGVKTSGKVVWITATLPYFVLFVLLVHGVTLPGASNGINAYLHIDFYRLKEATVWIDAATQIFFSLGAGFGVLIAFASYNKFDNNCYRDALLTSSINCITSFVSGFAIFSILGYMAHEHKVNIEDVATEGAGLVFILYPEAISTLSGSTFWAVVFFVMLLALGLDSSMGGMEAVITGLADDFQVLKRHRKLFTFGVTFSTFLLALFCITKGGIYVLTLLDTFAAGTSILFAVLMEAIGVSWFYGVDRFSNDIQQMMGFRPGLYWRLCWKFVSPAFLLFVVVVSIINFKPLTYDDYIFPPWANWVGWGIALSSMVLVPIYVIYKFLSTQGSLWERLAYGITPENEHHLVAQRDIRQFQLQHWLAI
Chain of Beta-2 adrenergic receptor (P07550 whole entry): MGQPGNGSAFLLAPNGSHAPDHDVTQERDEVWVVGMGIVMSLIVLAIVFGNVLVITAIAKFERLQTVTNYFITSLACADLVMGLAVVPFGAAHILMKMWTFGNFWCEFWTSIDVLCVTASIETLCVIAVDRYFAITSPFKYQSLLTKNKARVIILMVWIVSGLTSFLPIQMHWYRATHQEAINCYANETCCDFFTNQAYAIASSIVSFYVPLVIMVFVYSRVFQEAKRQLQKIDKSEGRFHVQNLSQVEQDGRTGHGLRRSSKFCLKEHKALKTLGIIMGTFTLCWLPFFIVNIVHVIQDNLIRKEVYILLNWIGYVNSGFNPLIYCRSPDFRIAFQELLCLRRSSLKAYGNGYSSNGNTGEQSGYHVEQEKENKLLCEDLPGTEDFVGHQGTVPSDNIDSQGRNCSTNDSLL
Chain of Delta-type opioid receptor (P41143 whole entry): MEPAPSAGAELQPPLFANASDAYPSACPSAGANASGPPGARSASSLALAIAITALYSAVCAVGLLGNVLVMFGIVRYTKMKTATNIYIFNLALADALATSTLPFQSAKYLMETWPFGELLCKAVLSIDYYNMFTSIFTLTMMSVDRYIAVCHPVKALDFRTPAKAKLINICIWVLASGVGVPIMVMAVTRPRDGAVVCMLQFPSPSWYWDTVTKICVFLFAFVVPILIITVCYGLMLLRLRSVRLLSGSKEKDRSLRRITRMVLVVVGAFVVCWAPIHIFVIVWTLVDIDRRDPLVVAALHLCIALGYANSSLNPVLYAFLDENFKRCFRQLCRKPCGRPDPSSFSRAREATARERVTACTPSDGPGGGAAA
Chain of Beta-1 adrenergic receptor (P08588 whole entry): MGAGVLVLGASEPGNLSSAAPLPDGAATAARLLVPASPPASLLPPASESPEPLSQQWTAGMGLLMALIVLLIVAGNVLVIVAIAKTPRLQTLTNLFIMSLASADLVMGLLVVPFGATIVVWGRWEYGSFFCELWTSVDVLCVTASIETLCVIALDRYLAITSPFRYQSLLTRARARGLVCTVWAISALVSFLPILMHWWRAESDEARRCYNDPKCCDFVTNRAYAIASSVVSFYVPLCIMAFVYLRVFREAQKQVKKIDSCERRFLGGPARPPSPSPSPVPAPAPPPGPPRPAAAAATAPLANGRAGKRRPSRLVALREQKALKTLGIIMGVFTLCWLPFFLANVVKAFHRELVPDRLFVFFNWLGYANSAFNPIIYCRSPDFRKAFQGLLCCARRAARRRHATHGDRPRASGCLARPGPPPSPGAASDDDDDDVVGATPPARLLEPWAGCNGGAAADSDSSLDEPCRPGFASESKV
Chain of 5-hydroxytryptamine receptor 5A (P47898 whole entry): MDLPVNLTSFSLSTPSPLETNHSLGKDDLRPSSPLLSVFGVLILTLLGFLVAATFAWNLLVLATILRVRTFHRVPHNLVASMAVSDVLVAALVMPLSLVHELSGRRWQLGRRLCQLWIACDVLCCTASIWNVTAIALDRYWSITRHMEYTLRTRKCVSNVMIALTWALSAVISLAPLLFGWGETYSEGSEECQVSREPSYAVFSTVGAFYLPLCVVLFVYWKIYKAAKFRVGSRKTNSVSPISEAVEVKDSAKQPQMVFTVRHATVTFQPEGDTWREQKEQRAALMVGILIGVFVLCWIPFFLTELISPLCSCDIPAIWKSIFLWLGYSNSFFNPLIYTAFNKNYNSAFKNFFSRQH

Row | Compound | Ki [1] [µM] | Ki [2] [µM] | Ki [3] [µM] | Ki [4] [µM] | Ki [6] [µM] | Ki [7] [µM] | Ki [8] [µM] | Ki [9] | Ki [10] [µM] | Ki [11] [µM] | Ki [12] [µM] | Ki [13] [µM] | Ki [14] [µM] | Ki [15] [µM] | Ki [16] [µM] | Ki ([5]; read-out: Ki) [µM] | Ki [18] [µM] | Ki [19] [µM] | Ki [20] [µM] | Ki [21] [µM] | further results
1 | Cn1ccc2cc3c(cc21)CCN3C(=O)Nc1cccnc1 | 0.012 | – | – | – | – | – | – | – | – | – | – | – | – | – | – | – | – | – | – | – | –
2 | CN1CCc2c(c3cccc4c3n2-c2ccccc2CC4)C1 | – | > 10 | > 10 | > 10 | > 10 | > 10 | > 10 | > 10 µM | > 10 | > 10 | > 10 | > 10 | > 10 | > 10 | – | – | – | – | – | – | Ki ([5]; read-out: pKi (converted)): > 10 µM
3 | CN1CCc2c(c3cccc4c3n2Cc2ccccc2C4)C1 | – | > 10 | > 10 | > 10 | > 10 | > 10 | > 10 | > 10 µM | > 10 | > 10 | – | > 10 | > 10 | > 10 | > 10 | 1.35 | > 10 | > 10 | > 10 | > 10 | Ki ([17]; read-out: pKi (converted)): > 10 µM; Ki [22]: > 10 µM; Ki ([23]; read-out: pKi (converted)): > 10 µM; Ki [24]: > 10 µM; Ki [25]: > 10 µM; Ki [26]: > 10 µM; Ki [27]: > 10 µM; Ki ([28]; read-out: pKi (converted)): > 10 µM; Ki [29]: > 10 µM; Ki ([30]; read-out: pKi (converted)): > 10 µM
4 | CN1CCc2c(c3cccc4c3n2CCc2ccccc2-4)C1 | 0.104 | > 10 | 0.529 | > 10 | > 10 | > 10 | > 10 | 1.38 µM and 1.23 µM | > 10 | > 10 | > 10 | > 10 | > 10 | > 10 | > 10 | 1.95 | 0.943 | > 10 | > 10 | > 10 | Ki [31]: 0.195 µM; Ki [32]: 0.625 µM; Ki ([17]; read-out: Ki): 0.286 µM; Ki [33]: 1.22 µM; Ki [34]: > 10 µM; Ki [35]: 4.35 µM; Ki [22]: > 10 µM; Ki [36]: 0.407 µM; Ki ([23]; read-out: Ki): 0.22 µM; Ki [37]: > 10 µM; Ki [24]: > 10 µM; Ki [25]: > 10 µM; Ki [26]: 2.24 µM; Ki [38]: > 10 µM; Ki [27]: > 10 µM; Ki [39]: 0.446 µM; Ki ([28]; read-out: Ki): 0.293 µM; Ki [29]: > 10 µM; Ki [40]: 0.257 µM; Ki ([30]; read-out: Ki): 0.413 µM
5 | CN1CC2c3ccccc3Oc3ccc(Cl)cc3C2C1 (centres undefined) [ASENAPINE MALEATE] | – | – | – | – | – | – | – | – | – | – | – | – | – | – | – | – | 0.0057 | – | – | – | –
